According to patent US20020165188A1, “Methods for inhibition of tumorigenic properties of melanoma cells” (priority 1999, published 2002):
Entries after “also recorded” stand apart in the source; their conditions may differ.

Columns and labels:
Desmoglein 1 = Desmoglein 1 expression in melanocytic cells under HGF stimulation (immunoblot); format: cell-based, human
Description: (§1) Optimal viral concentrations for infection were determined as the amounts of virus required to yield the desired levels of gene expression without apparent alteration in cellular phenotype or toxicity. Subconfluent melanocytes and melanoma cells were infected with adenoviruses for 2-4 hours at 37° C. in protein-free W489 medium. Viral suspension was then replaced with culture medium. Because dominant negative Desmoglein-3 vector AxCALNLDsg3ΔEC and E-cadherin vector AxCALNLEcadΔEC were made using the Cre-loxP system (Hanakawa et al., 2000), AxCANCre was co-infected with AxCALNLDsg3ΔEC or AxCALNLEcacLΔEC at a ratio of 1:1, respectively. Cells were allowed to recover for at least 24 hours before assay.
(§2) For immunoblotting, cells were washed with PBS and harvested in RIPA buffer. Total protein concentrations were measured using the bicinchoninic acid (BCA) assay (Pierce Chemical Co. Rockford, Ill.). Samples were loaded at 15 μg/lane and separated on 8% SDS polyacrylamide gels and transferred to polyvinylidene difluoride (PVDF) membranes and probed with specific primary antibodies. To detect the signal, peroxidase-conjugated secondary antibody was added, followed by exposure using enhanced chemiluminescence (ECL) (Amersham, Arlington Heights, Ill.). Some of the immunoblots were quantified using NIH Image (version 1.61).

E-cadherin = E-cadherin expression in melanocytic cells under HGF stimulation (immunoblot); format: cell-based, human
Description: as §1, §2

c-Met = c-Met phosphorylation by immunoprecipitation and anti-phosphotyrosine blot; format: cell-based, human
Description: To investigate the status of c-Met phosphorylation, subconfluent melanoma cells were infected with LacZ or Ad.CMV.rhHGF (20 pfu/cell) and cultured for 48 hours. In neutralizing antibody-treated group, HGF neutralizing antibody (final concentration 10 ug/ml) was added to serum-free medium 24 hours before lysis. Cells were washed with cold PBS containing 1 mM Na3VO4, and rapidly scraped into 200 μl PBS containing 1% Triton X-100, 1% NP4O, 1 mM Na3VO4, 1 mM phenylmethyl sulfonyl fluoride (PMSF), and protease inhibitors (1 μg/ml leupeptin, aprotinin and pepstatin). After incubation on ice for 15 minutes, the extracts were separated by centrifugation at 13,000× g for 10 minutes. The supernatants were used for immunoprecipitation using an anti-c-Met antibody (5 μg) for 1 hour at 4° C. with shaking. Protein A-G sepharose CL-4B beads (Pharmacia Biotech, Uppsala, Sweden) were then added and incubated for 12 hours. Samples were washed four times with lysis buffer, boiled in Laemmli buffer containing (3-mercaptoethanol, and subjected to electrophoresis on an 8% SDS-polyacrylamide gel. Separated proteins were transferred onto PVDF membrane and detected by anti-phosphotyrosine primary antibody (PY2O) and peroxidase-conjugated secondary antibody. Signals were detected using ECL.

[1] = test system: melanocytes or melanoma cells; assay: Growth of melanocytes and melanoma cells after HGF treatment; format: cell-based, human; settings: HGF treatment alone
IGF-R1 [2] = biological target: T1, IGF-R1 (human, UniProt P08069 31-1367, limits assumed); assay: co-immunoprecipitation with anti-Desmoglein 1 antibody, blot probed with anti-IGF-R1 antibody
T1 construct: Specificity control of the co-immunoprecipitation; also called IF-R1
Excerpt: (§3) Desmoglein 1, E-cadherin, c-Met and Plakoglobin can be co-immunoprecipitated from melanocytic cells. […] To test the possibility that physical interactions underlie the crosstalk between HGF/c-Met signaling and adhesion receptor regulation, the complex formation was investigated by immunoprecipitation analyses. Desmoglein 1, Plakoglobin, c-Met and E-cadherin were detected in the complexes pulled down by either anti-Desmoglein 1 antibody or anti-Plakoglobin antibody in keratinocytes and melanocytes. WM278 expresses no E-cadherin, but the other components were also found to form complexes. The specificity of the interaction was confirmed by probing the same blots with anti-IF-R1 antibody. IF-R1 was not detected in the immunoprecipitants but IF-R1 was detectable in whole cell extract.
(§4) To investigate c-Met Desmoglein lE-cadherin complexes, cells cultured in their optimal media were lysed in 10 mM Tris-HCl (pH7.4), 1% NP-40, 1% Triton X-100, 2mM CaCl₂, 150 mM NaCl, 1 mM PMSF and protease inhibitors (1 μg/ml leupeptin, aprotinin and pepstatin). The extracts were immunoprecipitated using either anti-Desmoglein 1 or anti-Plakoglobin antibody in the same condition described above. Immunoprecipitants were separated on gels, transferred onto PVDF membrane and probed with anti-Desmoglein 1, -Plakoglobin, -c-Met and -E-cadherin antibodies.

IGF-R1 [3] = biological target: T1, IGF-R1; assay: co-immunoprecipitation with anti-Plakoglobin antibody, blot probed with anti-IGF-R1 antibody
Excerpt: as §3, §4

[4] = Ad.CMV.rhHGF transduced melanocytes, antibody 10 μg/ml, wortmannin 30 μM, PD98059 10 μM and 50 μM
[5] = autocrine activation by HGF-expressing adenovirus, melanocytes, WM164, WM35
[6] = continuous/prolonged HGF stimulation (three days; Ad.CMV.rhHGF 20 pfu/cell), melanocytes, WM164 and WM35
[7] = melanocytes, one pulse of recombinant protein 50 ng/ml, five and twelve hour intervals

T1 sequence (P08069 31-1367 limits assumed): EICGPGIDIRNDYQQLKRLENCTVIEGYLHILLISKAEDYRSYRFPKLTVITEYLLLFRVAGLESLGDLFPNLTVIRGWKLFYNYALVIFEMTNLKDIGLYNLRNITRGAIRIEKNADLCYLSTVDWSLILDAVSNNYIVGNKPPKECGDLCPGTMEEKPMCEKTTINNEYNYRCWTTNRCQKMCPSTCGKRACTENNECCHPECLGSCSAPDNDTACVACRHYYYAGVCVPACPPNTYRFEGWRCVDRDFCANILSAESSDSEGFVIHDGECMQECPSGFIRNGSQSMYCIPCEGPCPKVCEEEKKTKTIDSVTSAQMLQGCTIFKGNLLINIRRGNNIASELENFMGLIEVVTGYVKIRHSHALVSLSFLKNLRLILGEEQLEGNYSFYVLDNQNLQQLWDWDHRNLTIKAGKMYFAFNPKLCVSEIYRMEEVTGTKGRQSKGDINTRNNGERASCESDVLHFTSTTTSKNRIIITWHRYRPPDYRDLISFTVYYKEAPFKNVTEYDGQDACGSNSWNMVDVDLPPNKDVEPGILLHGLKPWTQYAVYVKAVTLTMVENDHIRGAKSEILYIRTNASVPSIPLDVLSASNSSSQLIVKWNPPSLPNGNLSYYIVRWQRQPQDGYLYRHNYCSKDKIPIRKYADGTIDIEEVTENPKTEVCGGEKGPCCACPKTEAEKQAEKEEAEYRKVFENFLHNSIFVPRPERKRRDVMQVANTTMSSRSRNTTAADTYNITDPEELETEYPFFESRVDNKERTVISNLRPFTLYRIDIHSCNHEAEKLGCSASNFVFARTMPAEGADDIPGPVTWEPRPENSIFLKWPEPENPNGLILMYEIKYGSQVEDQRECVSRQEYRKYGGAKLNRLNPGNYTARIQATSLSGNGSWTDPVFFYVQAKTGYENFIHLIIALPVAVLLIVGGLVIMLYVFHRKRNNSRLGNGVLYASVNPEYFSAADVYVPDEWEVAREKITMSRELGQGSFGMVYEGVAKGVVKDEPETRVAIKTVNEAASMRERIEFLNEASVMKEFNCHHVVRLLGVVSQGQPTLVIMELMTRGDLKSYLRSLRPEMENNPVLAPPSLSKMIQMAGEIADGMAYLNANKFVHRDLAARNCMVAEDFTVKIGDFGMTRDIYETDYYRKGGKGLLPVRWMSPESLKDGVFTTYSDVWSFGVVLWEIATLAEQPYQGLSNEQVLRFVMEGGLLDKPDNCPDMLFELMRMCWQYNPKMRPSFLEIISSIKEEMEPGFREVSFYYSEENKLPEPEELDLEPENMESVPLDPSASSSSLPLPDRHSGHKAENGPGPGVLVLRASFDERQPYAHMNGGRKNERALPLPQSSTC

COc1cccc(-c2cc(=O)c3ccccc3o2)c1N [PD98059, reference compound]
blocking of HGF-induced downregulation of Desmoglein 1 (Desmoglein 1; [4]): less effective | blocking of downregulation of Desmoglein 1 (summary statement) (Desmoglein 1; [5]): partially blocked | blocking of HGF-induced downregulation of E-cadherin (E-cadherin; [4]): less effective | blocking of downregulation of E-cadherin (summary statement) (E-cadherin; [5]): partially blocked

HGF: multi-functional cytokine acting through tyrosine kinase receptor c-met; recombinant human HGF from R&D Systems
levels of c-Met (c-Met; after HGF treatment): did not change | tyrosine-phosphorylated c-Met (c-Met; melanocytes and melanoma cells treated with additional HGF): dramatic increase | expression levels of Desmoglein 1 (Desmoglein 1; [6]): greatly reduced | Desmoglein expression after pulse HGF (Desmoglein 1; [7]): did not alter; also recorded: did not cause downregulation | expression levels of E-cadherin (E-cadherin; [6]): greatly reduced | E-cadherin expression after pulse HGF (E-cadherin; [7]): did not alter; also recorded: did not cause downregulation | growth stimulation [1]: No significant growth stimulation

B1: Desmoglein 1 (other, human, UniProt Q02413 50-1049, looked up)
chain: EWIKFAAACREGEDNSKRNPIAKIHSDCAANQQVTYRISGVGIDQPPYGIFVINQKTGEINITSIVDREVTPFFIIYCRALNSMGQDLERPLELRVRVLDINDNPPVFSMATFAGQIEENSNANTLVMILNATDADEPNNLNSKIAFKIIRQEPSDSPMFIINRNTGEIRTMNNFLDREQYGQYALAVRGSDRDGGADGMSAECECNIKILDVNDNIPYMEQSSYTIEIQENTLNSNLLEIRVIDLDEEFSANWMAVIFFISGNEGNWFEIEMNERTNVGILKVVKPLDYEAMQSLQLSIGVRNKAEFHHSIMSQYKLKASAISVTVLNVIEGPVFRPGSKTYVVTGNMGSNDKVGDFVATDLDTGRPSTTVRYVMGNNPADLLAVDSRTGKLTLKNKVTKEQYNMLGGKYQGTILSIDDNLQRTCTGTININIQSFGNDDRTNTEPNTKITTNTGRQESTSSTNYDTSTTSTDSSQVYSSEPGNGAKDLLSDNVHFGPAGIGLLIMGFLVLGLVPFLMICCDCGGAPRSAAGFEPVPECSDGAIHSWAVEGPQPEPRDITTVIPQIPPDNANIIECIDNSGVYTNEYGGREMQDLGGGERMTGFELTEGVKTSGMPEICQEYSGTLRRNSMRECREGGLNMNFMESYFCQKAYAYADEDEGRPSNDCLLIYDIEGVGSPAGSVGCCSFIGEDLDDSFLDTLGPKFKKLADISLGKESYPDLDPSWPPQSTEPVCLPQETEPVVSGHPPISPHFGTTTVISESTYPSGPGVLHPKPILDPLGYGNVTVTESYTTSDTLKPSVHVHDNRPASNVVVTERVVGPISGADLHGMLEMPDLRDGSNVIVTERVIAPSSSLPTSLTIHHPRESSNVVVTERVIQPTSGMIGSLSMHPELANAHNVIVTERVVSGAGVTGISGTTGISGGIGSSGLVGTSMGAGSGALSGAGISGGGIGLSSLGGTASIGHMRSSSDHHFNQTIGSASPSTARSRITKYSTVQYSK
notes: Endogenous protein immunoprecipitated from detergent lysates of cultured human cells; also called Dsg1
binding result (IGF-R1 [2]): no binding

B2: Plakoglobin (other, human, UniProt P14923 1-745, looked up)
chain: MEVMNLMEQPIKVTEWQQTYTYDSGIHSGANTCVPSVSSKGIMEEDEACGRQYTLKKTTTYTQGVPPSQGDLEYQMSTTARAKRVREAMCPGVSGEDSSLLLATQVEGQATNLQRLAEPSQLLKSAIVHLINYQDDAELATRALPELTKLLNDEDPVVVTKAAMIVNQLSKKEASRRALMGSPQLVAAVVRTMQNTSDLDTARCTTSILHNLSHHREGLLAIFKSGGIPALVRMLSSPVESVLFYAITTLHNLLLYQEGAKMAVRLADGLQKMVPLLNKNNPKFLAITTDCLQLLAYGNQESKLIILANGGPQALVQIMRNYSYEKLLWTTSRVLKVLSVCPSNKPAIVEAGGMQALGKHLTSNSPRLVQNCLWTLRNLSDVATKQEGLESVLKILVNQLSVDDVNVLTCATGTLSNLTCNNSKNKTLVTQNSGVEALIHAILRAGDKDDITEPAVCALRHLTSRHPEAEMAQNSVRLNYGIPAIVKLLNQPNQWPLVKATIGLIRNLALCPANHAPLQEAAVIPRLVQLLVKAHQDAQRHVAAGTQQPYTDGVRMEEIVEGCTGALHILARDPMNRMEIFRLNTIPLFVQLLYSSVENIQRVAAGVLCELAQDKEAADAIDAEGASAPLMELLHSRNEGTATYAAAVLFRISEDKNPDYRKRVSVELTNSLFKHDPAAWEAAQSMIPINEPYGDDMDATYRPMYSSDVPLDPLEMHMDMDGDYPIDTYSDGLRPPYPTADHMLA
notes: Endogenous protein immunoprecipitated from detergent lysates of cultured human cells; also called gamma-catenin; y-catenin
binding result (IGF-R1 [3]): no binding
